Reference: US8455649B2, “Insecticidal substituted azinyl derivatives” (Dow AgroSciences, LLC, priority 2007, dated 2013)

Legend:
[1] = system: Beet Armyworm (Spodoptera exigua); experiment: Insecticidal diet-surface test for beet armyworm; assay type: in vivo; settings: 120 h, second-instar larvae on treated diet, 50 μg/cm^2 on diet surface, 5 days after treatment, 8 insects per treatment, read-out: LAPHEG AVG % Mortality (50 μg/cm^2)
Outline: (§1)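 Second-instar larvae placed on lepidopteran diet surface-treated with 50 μL of 2000 ppm compound in 9 acetone:1 water (stated as 50 μg/cm^2), eight wells per species. Held 5 days at 25° C, 50-55% RH, 16:8 h light:dark; mortality of 8 larvae scored as percent control.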

[2] = system: Corn Earworm (Helicoverpa zea); experiment: Insecticidal diet-surface test for corn earworm; assay type: in vivo; settings: 120 h, second-instar larvae on treated diet, 50 μg/cm^2 on diet surface, 5 days after treatment, 8 insects per treatment, read-out: HELIZE AVG % Mortality (50 μg/cm^2)
Outline: as §1

Structure (SMILES) | mortality at 50 µg/cm2 [1] [%] | mortality at 50 µg/cm2 [2] [%]
O=C(Nc1ccc(C(F)(F)F)cc1)Nc1cc(OCC(F)(F)F)nc(OCC(F)(F)F)n1 [Compound 105] | 100 | 0
CN(C(=O)Nc1nc(OCC(F)(F)F)cc(OCC(F)(F)F)n1)c1ccc(Cl)c(Cl)c1 [Compound 85] | 100 | 100
Cc1cc(Br)ccc1N(C)C(=O)Nc1nc(OCC(F)(F)F)cc(OCC(F)(F)F)n1 [Compound 158] | 100 | 100
CC(C)N(C(=O)Nc1nc(OCC(F)(F)F)cc(OCC(F)(F)F)n1)c1ccc(OC(F)(F)F)cc1 [Compound 69] | 100 | 100
O=C(Nc1nc(OCC(F)(F)F)cc(OCC(F)(F)F)n1)N(CCF)c1ccc(OC(F)(F)F)cc1 [Compound 95] | 100 | 100
CN(C(=O)Nc1nc(OCC(F)(F)F)cc(OCC(F)(F)F)n1)c1ccc(I)cn1 [Compound 126] | 100 | 100
CN(C(=O)Nc1nc(OCC(F)(F)F)nc(OCC(F)(F)F)n1)c1ccc(Cl)cc1 [Compound 121, N′-[4,6-bis(2,2,2-trifluoroethoxy)-1,3,5-triazin-2-yl]-N-(4-chlorophenyl)-N-methylurea] | 100 | 100
COC(=O)CN(C(=O)Nc1nc(OCC(F)(F)F)cc(OCC(F)(F)F)n1)c1ccc(OC(F)(F)F)cc1 [Compound 28] | 100 | 100
Cc1c(OCC(F)(F)F)nc(NC(=O)Nc2ccc(C(F)(F)F)cc2)nc1OCC(F)(F)F [Compound 147] | 88 | 100
O=C(Nc1ccc(C(F)(F)F)c(F)c1)Nc1nc(OCC(F)(F)F)cc(OCC(F)(F)F)n1 [Compound 78] | 100 | 100
O=C(Nc1ccc(OCC(F)F)cc1)Nc1nc(OCC(F)(F)F)cc(OCC(F)(F)F)n1 [Compound 15] | 75 | 50
CN(C(=O)Nc1nc(OCC(F)(F)F)cc(OCC(F)(F)F)n1)c1ccc(F)cc1 [Compound 86] | 100 | 100
CC(C)(C)COCN(C(=O)N(COCc1ccccc1)c1nc(OCC(F)(F)F)cc(OCC(F)(F)F)n1)c1ccc(C(F)(F)F)cc1 [Compound 51] | 100 | 0
O=C(Nc1ccc(OC(F)(F)F)cc1)Nc1cc(OCC(F)(F)F)nc(OCC(F)(F)F)n1 [Compound 115] | 38 | 75
CN(C(=S)Nc1nc(OCC(F)(F)F)cc(OCC(F)(F)F)n1)c1ccc(C(F)(F)F)cc1 [Compound 131, N′-[4,6-bis(2,2,2-trifluoroethoxy)pyrimidin-2-yl]-N-methyl-N-[4-(trifluoromethyl)phenyl]thiourea] | 100 | 100
CN(C(=O)Nc1nc(OCC(F)(F)C(F)(F)F)cc(OCC(F)(F)C(F)(F)F)n1)c1ccc(C(F)(F)F)cc1 [Compound 176] | 100 | 100
Cc1c(OCC(F)(F)F)nc(NC(=O)N(C)c2ccc(C(F)(F)F)cc2)nc1OCC(F)(F)F [Compound 141] | 100 | 100
CC(C)OCN(C(=O)Nc1nc(OCC(F)(F)F)cc(OCC(F)(F)F)n1)c1ccc(C(F)(F)F)cc1 [Compound 53] | 100 | 100
CCN(C(=O)Nc1nc(OCC(F)(F)F)cc(OCC(F)(F)F)n1)c1ccc(OC(F)(F)F)cc1 [Compound 27] | 100 | 100
CN(C(=O)Nc1nc(OCC(F)(F)F)cc(OCC(F)(F)F)n1)c1ccc(C#N)cc1 [Compound 83] | 100 | 100
N#Cc1ccc(NC(=O)Nc2nc(OCC(F)(F)F)cc(OCC(F)(F)F)n2)nc1 [Compound 127] | 0 | 100
CON(C(=O)Nc1nc(OCC(F)(F)F)cc(OCC(F)(F)F)n1)c1ccc(Cl)cc1 [Compound 65, N′-[4,6-bis(2,2,2-trifluoroethoxy)pyrimidin-2-yl]-N-(4-chlorophenyl)-N-methoxyurea] | 100 | 100
CN(C(=O)Nc1nc(OCC(F)(F)F)cc(OCC(F)(F)F)n1)c1ccc(OC(F)(F)F)cc1 [Compound 7, N′-[4,6-bis(2,2,2-trifluoroethoxy)pyrimidin-2-yl]-N-methyl-N-[4-(trifluoromethoxy)phenyl]urea] | 100 | 100
CN(C(=O)Nc1nc(OCC(F)(F)F)cc(OCC(F)(F)F)n1)c1ccc(Br)nc1 [Compound 42] | 100 | 100
CN(C(=O)Nc1nc(OCC(F)(F)F)cc(OCC(F)(F)F)n1)c1ccc(C(F)(F)F)nc1 [Compound 47] | 100 | 100
O=C(Nc1ccc(C(F)(F)F)cc1)N(COCc1ccccc1)c1nc(OCC(F)(F)F)cc(OCC(F)(F)F)n1 [Compound 19, N-Benzyloxymethyl-N-[4,6-bis-(2,2,2-trifluoroethoxy)pyrimidin-2-yl]-N′-[(4-trifluoromethyl)phenyl]urea] | 100 | 100
CSc1ccc(NC(=O)Nc2nc(OCC(F)(F)F)cc(OCC(F)(F)F)n2)cc1 [Compound 57] | 0 | 100
